# Experiment: Inhibition of PAR1-mediated aggregation of TRAP-stimulated human platelet
structure (smiles),measurement,value
"CCOC(=O)N[C@@H]1CC[C@@H]2[C@@H](C1)C[C@H]1C(=O)O[C@H](C)[C@H]1[C@H]2C=Cc1ccc(-c2ccccn2)cn1 [ethyl(1R,3aR,4aR,6R,8aR,9S,9aS)-9-((E)-2-(2,3'-bipyridin-6'-yl)vinyl)-1-methyl-3-oxododecahydronaphtho[2,3-c]furan-6-ylcarbamate]",IC50,180 nM

# — BindingDB's records for doi:10.1016/j.bmcl.2010.09.009 (Merck Research Laboratories, 2010)
